Test results from article PMC9736855, “Discovery of 3-Amino-1H-pyrazole-Based Kinase Inhibitors to Illuminate the Understudied PCTAIRE Family” (International Journal of Molecular Sciences, 2022).

Tests used:
SPRK1 = molecular target: T1, SPRK1 (Homo sapiens, UniProt Q96SB4); assay: DSF; assay type: binding
T1 construct: purchased in-house DSF panel (SGC Frankfurt)
Procedure: (§1) Recombinant protein kinase domains with a concentration of 2 μM were mixed with a 10 μM compound solution in DMSO, 20 mM HEPES, pH 7.5, and 500 mM NaCl. SYPRO Orange (5000×, Invitrogen) was added as a fluorescence probe (1 µl per mL). Subsequently, temperature-dependent protein unfolding profiles were measured, using the QuantStudio™ 5 realtime PCR machine (Thermo Fisher, Waltham, MA, USA). […] The temperature was raised with a step rate of 3 °C per minute. Data points were analyzed with the internal software (Thermal Shift SoftwareTM Version 1.4, Thermo Fisher) using the Boltzmann equation to determine the inflection point of the transition curve [56]. Differences in melting temperature are given as ΔTm values in °C. Measurements were performed in duplicates.

MAPKAPK2 = molecular target: T2, MAPKAPK2 (Homo sapiens, UniProt P49137); assay: DSF; assay type: binding
T2 construct: purchased in-house DSF panel (SGC Frankfurt)
Procedure: Recombinant protein kinase domains with a concentration of 2 μM were mixed with a 10 μM compound solution in DMSO, 20 mM HEPES, pH 7.5, and 500 mM NaCl. SYPRO Orange (5000×, Invitrogen) was added as a fluorescence probe (1 µl per mL). Subsequently, temperature-dependent protein unfolding profiles were measured, using the QuantStudio™ 5 realtime PCR machine (Thermo Fisher, Waltham, MA, USA). […] The temperature was raised with a step rate of 3 °C per minute. Data points were analyzed with the internal software (Thermal Shift SoftwareTM Version 1.4, Thermo Fisher) using the Boltzmann equation to determine the inflection point of the transition curve. Differences in melting temperature are given as ΔTm values in °C. Measurements were performed in duplicates.

MAP3K5 = molecular target: T3, MAP3K5 (Homo sapiens, UniProt Q99683); assay: DSF; assay type: binding
T3 construct: purchased in-house DSF panel (SGC Frankfurt)
Procedure: as §1

PCTAIRE family = assay: NanoBRET; assay type: cell-based; conditions: read-out: cellular potency, other members of the PCTAIRE family
Outline: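 Live-cell competitive tracer assay: NanoLuc-kinase fusions transiently expressed 20 h in HEK293T, compound and tracer (at KD,app) incubated 2 h, BRET ratio fitted to give EC50.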

GSK3B = GSK3B (Homo sapiens, UniProt P49841); assay: NanoBRET; assay type: cell-based; parameters: Full-length kinases were obtained as plasmids cloned in frame with a terminal NanoLuc-fusion; host or cells: HEK293T
Procedure: The assay was performed as described previously. In brief: Full-length kinases were obtained as plasmids cloned in frame with a terminal NanoLuc-fusion (Promega, Madison, WI, USA), as specified in table (Table S6). Plasmids were transfected into HEK293T cells using FuGENE HD (Promega, E2312) and proteins were allowed to express for 20h. Serially diluted inhibitor and NanoBRET Kinase Tracer (Promega) at a concentration determined previously as the KD,app (Table S5) were pipetted into white 384-well plates (Greiner 781207) using an Echo acoustic dispenser (Labcyte, San Jose, CA, USA). The corresponding protein-transfected cells were added and reseeded at a density of 2.5 × 10^5 cells/mL after trypsinization and resuspending in Opti-MEM without phenol red (Life Technologies, Carlsbad, CA, USA). The system was allowed to equilibrate for 2 h at 37 °C/5% CO2 prior to BRET measurements. To measure BRET, NanoBRET NanoGlo Substrate + Extracellular NanoLuc Inhibitor (Promega, N2540) was added as per the manufacturer’s protocol, and filtered luminescence was measured on a PHERAstar plate reader (BMG Labtech, Ortenberg, Germany) equipped with a luminescence filter pair (450 nm BP filter (donor) and 610 nm LP filter (acceptor)). […]

[1] = Microsomal stability assay; assay type: in vitro ADME, Sprague-Dawley rats; conditions: rat liver microsomes, 10 µM, 37 °C, 60 min
Procedure: The lead structure 1 was not included in this assay due to its promiscuous behaviour. Since 1 is presumably not suitable as a tool compound to study the effect of selective kinase inhibition in an in vivo application, we focused on the newly synthesized compounds 21i and 43d. The compounds were tested against an activated microsome mix derived from the liver of Sprague-Dawley rats, as previously reported. 21i and 43d were incubated at 37 °C for 60 min and the amount of unmetabolized compound was determined in 15 min steps, using high-performance liquid chromatography (HPLC).
The solubilized test compound (5 μL, final concentration 10 µM) was preincubated at 37 °C in 432 μL of phosphate buffer (0.1 M, pH 7.4) together with 50 μL NADPH regenerating system (30 mM glucose 6 phosphate, 4 U/mL glucose 6 phosphate dehydrogenase, 10 mM NADP, 30 mM MgCl2). After 5 min, the reaction was started by the addition of 13 μL of microsome mix from the liver of Sprague−Dawley rats (Invitrogen; 20 mg protein/mL in 0.1 M phosphate buffer) in a shaking water bath at 37 °C. The reaction was stopped by adding 500 μL of ice cold methanol at 0, 15, 30 and 60 min. […] The amounts of the test compound were quantified by an external calibration curve. Data are expressed as the mean ± SEM remaining compound from three independent experiments.

359 wild-type kinases = system: 359 wild-type kinases; parameters: method as in PMID 19053485; conditions: kinome-wide screen; cited from earlier work
CDK5 = conditions: cited from earlier work
JNK3 = molecular target: T4, JNK3 (Homo sapiens, UniProt P53779); parameters: method as in PMID 19053485; conditions: cited from earlier work
T4 construct: Recombinant protein kinase domains with a concentration of 2 μM were mixed; made in house

CDK2 = molecular target: T5, CDK2 (Homo sapiens, UniProt P24941); conditions: cited from earlier work
T5 construct: purchased in-house DSF panel (SGC Frankfurt)

T2 sequence (P49137 64-325): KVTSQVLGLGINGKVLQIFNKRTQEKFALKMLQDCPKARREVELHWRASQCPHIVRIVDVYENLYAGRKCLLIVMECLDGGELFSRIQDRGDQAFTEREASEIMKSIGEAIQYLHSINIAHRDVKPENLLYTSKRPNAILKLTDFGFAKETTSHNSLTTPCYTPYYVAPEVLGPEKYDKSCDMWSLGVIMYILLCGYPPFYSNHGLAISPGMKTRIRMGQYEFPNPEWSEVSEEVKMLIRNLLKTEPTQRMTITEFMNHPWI
T1 sequence (Q96SB4 whole entry): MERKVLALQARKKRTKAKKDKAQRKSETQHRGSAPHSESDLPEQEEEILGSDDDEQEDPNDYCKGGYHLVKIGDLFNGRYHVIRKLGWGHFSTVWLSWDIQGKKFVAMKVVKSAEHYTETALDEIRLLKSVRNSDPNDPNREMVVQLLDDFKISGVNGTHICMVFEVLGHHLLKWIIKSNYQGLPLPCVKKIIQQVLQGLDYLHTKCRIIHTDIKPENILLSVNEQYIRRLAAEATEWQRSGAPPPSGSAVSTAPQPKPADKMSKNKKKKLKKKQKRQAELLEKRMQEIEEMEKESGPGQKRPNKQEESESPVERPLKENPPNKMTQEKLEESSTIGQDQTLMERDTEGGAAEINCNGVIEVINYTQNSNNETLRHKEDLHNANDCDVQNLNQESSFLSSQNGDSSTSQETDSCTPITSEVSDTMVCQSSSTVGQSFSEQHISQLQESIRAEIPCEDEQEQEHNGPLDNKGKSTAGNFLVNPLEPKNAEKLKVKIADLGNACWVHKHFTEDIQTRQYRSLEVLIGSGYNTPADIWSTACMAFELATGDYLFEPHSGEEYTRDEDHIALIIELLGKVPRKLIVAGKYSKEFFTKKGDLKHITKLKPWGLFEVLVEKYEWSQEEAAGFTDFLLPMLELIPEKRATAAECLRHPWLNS
T3 sequence (Q99683 659-951): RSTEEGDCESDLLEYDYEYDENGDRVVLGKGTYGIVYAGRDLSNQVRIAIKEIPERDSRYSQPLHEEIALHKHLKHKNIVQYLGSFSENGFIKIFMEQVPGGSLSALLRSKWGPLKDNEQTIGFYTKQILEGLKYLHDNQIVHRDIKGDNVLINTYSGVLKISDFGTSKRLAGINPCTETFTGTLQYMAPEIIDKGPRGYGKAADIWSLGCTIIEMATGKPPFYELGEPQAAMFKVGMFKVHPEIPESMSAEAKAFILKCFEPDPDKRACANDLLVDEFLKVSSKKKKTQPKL
T4 sequence (P53779 64-359 limits assumed): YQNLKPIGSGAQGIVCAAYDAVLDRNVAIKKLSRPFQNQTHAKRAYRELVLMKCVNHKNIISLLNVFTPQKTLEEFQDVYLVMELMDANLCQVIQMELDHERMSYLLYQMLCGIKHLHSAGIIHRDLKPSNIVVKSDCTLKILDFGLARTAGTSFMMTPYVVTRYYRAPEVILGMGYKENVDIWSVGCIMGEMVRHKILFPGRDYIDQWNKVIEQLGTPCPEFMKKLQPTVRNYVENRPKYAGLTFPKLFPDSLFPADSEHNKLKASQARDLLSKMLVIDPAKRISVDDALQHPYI
Sequence of GSK3B (P49841 whole entry, the tested form may be a part): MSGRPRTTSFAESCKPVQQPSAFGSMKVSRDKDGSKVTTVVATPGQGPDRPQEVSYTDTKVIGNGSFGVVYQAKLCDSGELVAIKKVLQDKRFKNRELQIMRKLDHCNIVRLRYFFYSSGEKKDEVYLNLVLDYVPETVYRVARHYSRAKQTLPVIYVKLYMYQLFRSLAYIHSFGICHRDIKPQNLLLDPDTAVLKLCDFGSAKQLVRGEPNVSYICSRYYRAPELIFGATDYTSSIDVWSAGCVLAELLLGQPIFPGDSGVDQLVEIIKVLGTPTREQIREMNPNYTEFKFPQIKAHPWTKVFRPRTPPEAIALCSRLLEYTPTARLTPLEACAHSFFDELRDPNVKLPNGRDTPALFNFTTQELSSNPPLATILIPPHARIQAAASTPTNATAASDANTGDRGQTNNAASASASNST

## CC(C)OC(=O)c1cc(Nc2ccnc(NCc3ccc(NC(=O)OC(C)(C)C)cc3)n2)n[nH]1 [42d, isopropyl 3-((2-((4-((tert-butoxycarbonyl)amino)benzyl)amino)pyrimidin-4-yl)amino)-1H-pyrazole-5-carboxylate]
SPRK1
  ΔTm SPRK1: -0.2 °C
MAPKAPK2
  ΔTm MAPKAPK2: -0.3 °C
MAP3K5
  ΔTm MAP3K5: 0.1 °C

## CC(C)(C)OC(=O)Nc1ccc(CNc2nccc(Nc3cc(C(=O)OC(C)(C)C)[nH]n3)n2)cc1 [43d, tert-butyl 3-((2-((4-((tert-butoxycarbonyl)amino)benzyl)amino)pyrimidin-4-yl)amino)-1H-pyrazole-5-carboxylate]
SPRK1
  ΔTm SPRK1: 0.4 °C
PCTAIRE family
  EC50: 20 to 120 nM
MAPKAPK2
  ΔTm MAPKAPK2: 0.2 °C
GSK3B
  NanoBRET EC50 GSK3B: negligible
[1]
  unmetabolized compound detected: 79%
MAP3K5
  ΔTm MAP3K5: 0.1 °C

## N#CCc1ccc(Nc2nccc(Nc3cc(C4CC4)[nH]n3)n2)cc1 [compound 1, reference compound]
359 wild-type kinases
  number of kinases targeted of 359 wild-type kinases: 337
CDK5
  Kd: 27.6 nM
JNK3
  Kd: 26.1 nM
CDK2
  Kd: 4.6 nM

## COC(=O)c1cc(Nc2ccnc(NCc3ccc(NC(=O)OC(C)(C)C)cc3)n2)[nH]n1 [21i, methyl 5-((2-((4-((tert-butoxycarbonyl)amino)benzyl)amino)pyrimidin-4-yl)amino)-1H-pyrazole-3-carboxylate]
[1]
  unmetabolized compound detected: 16%
